Data taken from paper PMC12145446, “Development of an AI model for DILI-level prediction using liver organoid brightfield images” (Communications Biology, 2025).
Several values for one entry are separate records, joined by “and”; a condition that tells them apart may be missing. Equal entries are not always repeated.

What was measured:
HepG2 spheroids [1] = assay: ALB secretion (Human Albumin ELISA) in the DILI toxicity test on HepG2 spheroids; type: cell-based; details: 10*Cmax, end of Day 3 (72 h), individual replicates n = 3, unit from Fig. S3 legend
Description: (§1) The HepG2 cells were donated by Avatarget Co., Ltd (Suzhou, China). The HepG2 cells were cultured in DMEM (Gibco, 10567014) containing 10% fetal bovine serum (GIBCO, A3161001C), and 1×penicillin/streptomycin (Gibco, 15140148). HepG2 cells (70–80% cell confluency) were washed twice in sterile PBS and then dissociated with 1 mL 0.25% EDTA-Trypsin. Using 3×volume of the complete medium neutralized with reagent above, count cells and ensure 10,000 cells/well. The desired volume of cell suspension was inoculated into the 200 μL/well of ultra-low attachment microplate (Corning, 7007). The plate was centrifuged at 1500 rpm for 10 min and then incubated in an incubator at 37 °C in 5% CO2 for 4 days. The medium is changed every other day at a 1:1 ratio.
(§2) The peak serum concentration (Cmax) can intuitively reflect the actual presence level of a drug in the body’s circulatory system. Therefore, we used 1*Cmax as a reference for the drug dosage to better approximate the in vivo conditions. On this basis, we selected 10*Cmax as the reference concentration, taking into account the coefficient of variation in toxicology (individual variability: tenfold). […] Each drug was tested in triplicate. Plates were dosed with the drug for 72 h in each cycle (referred to as Day 0 through Day 3). […] At the end of day 3, the supernatant from each well was collected to determine ALB secretion, and the spheroids from each well were used for the cell viability assay. The Cmax information of the drugs is shown in Supplementary Table 3.
The culture supernatants were collected and stored at −80 °C until use. The supernatant was assayed with a Human Albumin ELISA Kit (PROTEINTECH, KE00076). Assays were performed according to the manufacturer’s instructions.

HepG2 spheroids [2] = assay: Cellular viability (ATP, CellTiter-Glo) in the DILI toxicity test on HepG2 spheroids; type: cell-based; details: 10*Cmax, end of Day 3 (72 h), individual replicates n = 3, unit from Fig. S4 legend
Description: as §1, §2
CellTiter-Glo (CTG, G9681, PROMEGA) reagent and culture medium were added to each well in a 1:1 ratio. The contents were mixed for 2 min to induce cell lysis. The plate was incubated at room temperature for 10 min to stabilize the luminescent signal. Recording of luminescence was carried out with BioTek Microplate Reader Synergy H1 (Vermont, USA).

[3] = cited from earlier work; for Label section / Severity class: DILIrank; for Label section: FDA drug label section; for DILIrank: FDA DILIrank category based on clinical data
[4] = peak serum concentration used as dosing reference; source not given; cited from earlier work

O=P1(N(CCCl)CCCl)NCCCO1 (stereo not shown) [Cyclophosphamide]
ALB inhibition (HepG2 spheroids [1]): 90% and 54% and 78% | ATP inhibition (HepG2 spheroids [2]): 36% and 26% and 38% | Label section [3]: Adverse reactions | Severity class [3]: 5 | DILIrank [3]: vLess-DILI-Concern | Cmax [4]: 69000 ng/mL

C[C@]12CCC(=O)C=C1CC[C@@H]1[C@@H]2[C@@H](O)C[C@@]2(C)[C@H]1CC[C@]2(O)C(=O)CO [Hydrocortisone]
ALB inhibition (HepG2 spheroids [1]): -33% and -30% and -26% | ATP inhibition (HepG2 spheroids [2]): -17% and -20% and -30% | Label section [3]: No match | Severity class [3]: 0 | DILIrank [3]: vNo-DILI-Concern | Cmax [4]: 305 ng/mL

N[C@@H]1[C@H]2CN(c3nc4c(cc3F)c(=O)c(C(=O)O)cn4-c3ccc(F)cc3F)C[C@@H]12 [Trovafloxacin]
ALB inhibition (HepG2 spheroids [1]): 28% and 76% and 63% | ATP inhibition (HepG2 spheroids [2]): 52% and 58% | Label section [3]: Withdrawn | Cmax [4]: 2090 ng/mL
